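Following 48 hours of exposure in 96-well plates, responses at five concentrations were used to interpolate endpoints linearly. Abbreviation: GI50, concentration required for 50% inhibition of growth. TGI denotes the concentration required for complete inhibition of growth.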
Key:
Assay in all cases: NCI tumour cell line growth inhibition, 48 h
HT29 colon = test system: HT29 colon
KM12 colon = test system: KM12 colon
SNB-75 CNS = test system: SNB-75 CNS
COLO 205 colon = test system: COLO 205 colon
LOX IMVI melanoma = test system: LOX IMVI melanoma
OVCAR-5 ovarian = test system: OVCAR-5 ovarian
NCI-H522 lung = test system: NCI-H522 lung
OVCAR-4 ovarian = test system: OVCAR-4 ovarian
U251 CNS = test system: U251 CNS
T-47D breast = test system: T-47D breast
MOLT-4 leukemia = test system: MOLT-4 leukemia
SR leukemia = test system: SR leukemia
NCI-H23 lung = test system: NCI-H23 lung
HCC-2998 colon = test system: HCC-2998 colon
OVCAR-3 ovarian = test system: OVCAR-3 ovarian
SF-539 CNS = test system: SF-539 CNS

SMILES | TGI (HT29 colon) | TGI (KM12 colon) | TGI (SNB-75 CNS) | TGI (COLO 205 colon) | TGI (LOX IMVI melanoma) | TGI (OVCAR-5 ovarian) | TGI (NCI-H522 lung) | TGI (OVCAR-4 ovarian) | TGI (U251 CNS) | TGI (T-47D breast) | TGI (MOLT-4 leukemia) | TGI (SR leukemia) | TGI (NCI-H23 lung) | TGI (HCC-2998 colon) | TGI (OVCAR-3 ovarian) | TGI (SF-539 CNS) | GI50 (SR leukemia) | GI50 (SF-539 CNS)
CN1CCCN2CCN(C)CCN(CC1)CC2 | > 100 µM | > 100 µM | > 100 µM | > 100 µM | > 100 µM | > 100 µM | > 100 µM | > 100 µM | > 100 µM | > 100 µM | > 100 µM | > 100 µM | > 100 µM | > 100 µM | > 100 µM | > 100 µM |  | 
CN(C)c1nc(N(C)C)nc(N(C)C)n1 | > 150 µM | > 150 µM | 149 µM | > 150 µM | > 150 µM | > 150 µM | > 150 µM | > 143 µM | > 150 µM | > 150 µM | 136 µM | > 150 µM | > 143 µM | > 123 µM | > 143 µM | > 142 µM |  | 
C[C@]12CC[C@@H]3c4ccc(O)cc4CC[C@H]3[C@@H]1C/C(=C\c1ccc([N+](=O)[O-])cc1)C2=O | 37.2 µM | > 100 µM | > 100 µM | > 100 µM | > 100 µM | > 100 µM | 65.4 µM | > 100 µM | > 100 µM | > 100 µM | > 100 µM | > 100 µM | > 100 µM | > 100 µM | > 100 µM | 75 µM |  | 
CCCCCCCCC[C@@H]1C[C@@H]2CCC3C(C(=O)OC)=C(C)NC(=N1)N32 (some centres not stated) | 22.2 µM | 14 µM | 19.8 µM | 15.1 µM | 26.5 µM | 35.6 µM | 9.82 µM | 25.4 µM | 16.8 µM | 25.3 µM | > 100 µM | > 100 µM | 16.3 µM | 8.53 µM | 11.6 µM | 12.2 µM |  | 
CN(C1=NCCO1)c1cccc2ccccc12 | > 10 µM | > 10 µM | > 10 µM | > 10 µM | > 10 µM | > 10 µM | > 10 µM | > 10 µM | > 10 µM | > 10 µM | > 10 µM | > 10 µM | > 10 µM | > 10 µM | > 10 µM | > 10 µM |  | 
S=c1ssc2c3ssc(=S)c3n(Cc3ccccc3)c12 | > 100 µM | > 100 µM | > 100 µM | > 100 µM | > 100 µM | > 100 µM | > 100 µM | > 100 µM | > 100 µM | > 100 µM | 38.9 µM | > 100 µM | > 100 µM | > 100 µM | > 100 µM | 58.9 µM |  | 
COc1ccc(OC)c(C2CCc3nc4nc(N)nc(N)c4cc3C2)c1 (configuration not stated) | 10.8 µM | 5.14 µM | 4.1 µM | 17.9 µM | 8.14 µM | 23.3 µM | 4.94 µM | 4.14 µM | 3.28 µM | 3.78 µM | 5.3 µM | 7.06 µM | 38.3 µM | 3.16 µM | 3.54 µM | 17.8 µM |  | 
CCN(CC)c1ccc(/C=C(\C#N)c2nc(N)nc(N3N=C(C)CC3(C)C)n2)cc1 | > 49.2 µM | > 100 µM | 28.8 µM | > 100 µM | 32.7 µM | 93.9 µM | 36.5 µM | 30.5 µM | 26.1 µM | 39.6 µM | > 100 µM | > 100 µM | > 80.9 µM | 79.1 µM | 37.9 µM | 19.9 µM |  | 
Clc1ccc(-c2nn3c(CCCCCCCCc4nnc5sc(-c6ccc(Cl)cc6)nn45)nnc3s2)cc1 | 30.6 µM | 61.3 µM | 75.3 µM | > 100 µM | 24.5 µM | > 100 µM | 28.8 µM | > 64.6 µM | 39.8 µM | 34 µM | 33.2 µM | > 74.3 µM | > 92.6 µM | > 100 µM | 59 µM | 52.6 µM |  | 
COc1c2c(c(OC)c3c1c(=O)c1ccccc1n3C)OCO2 | > 100 µM | > 41.9 µM | > 100 µM | 53.9 µM | > 100 µM | > 100 µM | > 43.1 µM | > 100 µM | > 100 µM | > 100 µM | > 31.6 µM | > 29.7 µM | > 100 µM | > 100 µM | > 100 µM | > 90.7 µM |  | 
C=C(O)c1ccccc1C#Cc1ccccc1C(=O)OC | > 10 µM | > 10 µM | > 10 µM | > 10 µM | > 10 µM | > 10 µM | > 10 µM | > 10 µM | > 10 µM | > 10 µM | > 10 µM | > 10 µM | > 10 µM | > 10 µM | > 10 µM | > 10 µM |  | 
Clc1ccc(N=C/C=C/Nc2ccc(Cl)cn2)nc1 | 22.1 µM | 21 µM | 25.7 µM | 25.3 µM | 19.8 µM | 30 µM | 28.4 µM | 25.7 µM | 20.7 µM | 40.9 µM | 19.4 µM | 6.69 µM | 32.8 µM | 0.922 µM | 26.6 µM | 31.3 µM |  | 
CCN(CC)C(=S)SS(=O)(=O)c1ccccc1C(=O)O | > 100 µM | > 100 µM | > 100 µM | > 100 µM | > 100 µM | > 100 µM | > 36.3 µM | > 100 µM | > 100 µM | > 100 µM | > 100 µM | > 100 µM | > 100 µM | > 100 µM | > 100 µM | > 100 µM |  | 
Cc1ccc(S(=O)ON2CCC(C(=O)O)(c3ccccc3)CC2)cc1 (configuration not stated) | > 100 µM | > 100 µM | > 100 µM | > 100 µM | > 100 µM | > 100 µM | > 100 µM | > 100 µM | > 100 µM | > 100 µM | > 100 µM | > 100 µM | > 100 µM | > 100 µM | > 100 µM | > 100 µM | > 100 µM | > 100 µM
O=c1c2ccccc2nc2n1NC(c1c(Cl)cccc1Cl)N2c1cccc(Cl)c1 (configuration not stated) | > 100 µM | > 100 µM | 9.92 µM | > 100 µM | > 100 µM | 19.1 µM | 28.8 µM | 6.73 µM | 5.19 µM | 32.2 µM | > 100 µM | > 100 µM | 56.7 µM | > 100 µM | 54.2 µM | 31 µM |  | 

— PubChem BioAssay (NCI)
